Columns and labels:
Assay type in all cases: cell-based
[1] = tested on: HEK-293 cells; assay: HEK-293 growth inhibition assay; conditions: 3 days, CTG
Outline: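 HEK-293 cells plated 24 hours before compound treatment, then exposed for 3 days at 37°C/5% CO2. Viability by CellTiter-Glo luminescence after 20 minutes at room temperature. IC50 from RLU versus concentration via 4-parameter logistic nonlinear regression.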

[2] = tested on: AR / CBP ternary complex; assay: Ternary complex formation assay (sandwich ELISA, AR capture / CBP detection) in VCaP cell lysates; conditions: 1.5 hours treatment, sandwich ELISA (AR capture, CBP or p300 detection)
Outline: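 Anti-AR (AR 441)-coated plates capture AR from lysates of VCaP cells grown ≥3 days at 50K/well in 5% charcoal-stripped FBS, dosed with bifunctional for 1.5 h and lysed 30 min at 4 °C. Co-captured CBP/p300 is probed with rabbit mAb and HRP anti-rabbit, then QuantaRed fluorescence (570/585) is read at 0, 5 and 15 min.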

[3] = tested on: VCaP cells; assay: VCaP growth inhibition assay; conditions: 30 pM R1881, 9 days, CTG
Outline: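 Growth read by CTG luminescence after 9-day exposure to compound (final 100 nM–10 fM, 1:5 steps) plus 30 pM R1881, in phenol red-free DMEM with 5% CSS. Cells pre-incubated 72 h before dosing; IC50 by nonlinear 4-parameter regression.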

Row | SMILES | EC50 [2] | IC50 [3] | IC50 [1]
1 | CNC(=O)N1CCc2c(c(N3CCCc4cc(-c5cnn(C)c5)c(C(F)F)cc43)nn2C2CCN(C(=O)CN3CCN(c4ccc(C(=O)NC5C(C)(C)C(Oc6ccc(C#N)c(Cl)c6)C5(C)C)cn4)CC3)CC2)C1 (stereo not drawn) [Compound 42, 1-[1-[2-[4-[5-[[3-(3-chloro-4-cyano-phenoxy)-2,2,4,4-tetramethyl-cyclobutyl]carbamoyl]-2-pyridyl]piperazin-1-yl]acetyl]-4-piperidyl]-3-[7-(difluoromethyl)-6-(1-methylpyrazol-4-yl)-3,4-dihydro-2H-quinolin-1-yl]-N-methyl-6,7-dihydro-4H-pyrazolo[4,3-c] pyridine-5-carboxamide] | < 1 nM | ≤ 0.1 nM | > 10000 nM
2 | COc1cc(OC2C(C)(C)C(NC(=O)c3ccc(N4CC5(CCC(N6CCC(n7nc(N8CCCc9cc(-c%10cnn(C)c%10)c(C(F)F)cc98)c8c7CCN(C(C)=O)C8)CC6)CC5)C4)cc3)C2(C)C)ccc1C#N (stereo not drawn) [Compound 273, 4-[7-[4-[5-acetyl-3-[7-(difluoromethyl)-6-(1-methylpyrazol-4-yl)-3,4-dihydro-2H-quinolin-1-yl]-6,7-dihydro-4H-pyrazolo[4,3-c]pyridin-1-yl]-1-piperidyl]-2-azaspiro[3.5]nonan-2-yl]-N-[3-(4-cyano-3-methoxy-phenoxy)-2,2,4,4-tetramethyl-cyclobutyl]benzamide] | < 1 nM | ≤ 0.1 nM | > 1000 nM
3 | CC(=O)N1CCc2c(c(N3CCCc4cc(-c5cnn(C)c5)c(C(F)F)cc43)nn2C2CCN(C(=O)C3CCN(c4ncc(C(=O)NC5C(C)(C)C(Oc6ccc(C#N)c(Cl)c6)C5(C)C)cn4)CC3)CC2)C1 (stereo not drawn) [Compound 22, 2-[4-[4-[5-acetyl-3-[7-(difluoromethyl)-6-(1-methylpyrazol-4-yl)-3,4-dihydro-2H-quinolin-1-yl]-6,7-dihydro-4H-pyrazolo[4,3-c]pyridin-1-yl]piperidine-1-carbonyl]-1-piperidyl]-N-[3-(3-chloro-4-cyano-phenoxy)-2,2,4,4-tetramethyl-cyclobutyl]pyrimidine-5-carboxamide] | < 1 nM | ≤ 0.1 nM | > 10000 nM
4 | CNC(=O)N1CCc2c(c(N3CCCc4cc(-c5cnn(C)c5)c(C(F)F)cc43)nn2C2CCN(C(=O)COCC3CCN(c4ncc(C(=O)NC5C(C)(C)C(Oc6ccc(C#N)c(Cl)c6)C5(C)C)cn4)CC3)CC2)C1 (stereo not drawn) [Compound 107, 1-[1-[2-[[1-[5-[[3-(3-chloro-4-cyano-phenoxy)-2,2,4,4-tetramethyl-cyclobutyl]carbamoyl]pyrimidin-2-yl]-4-piperidyl]methoxy]acetyl]-4-piperidyl]-3-[7-(difluoromethyl)-6-(1-methylpyrazol-4-yl)-3,4-dihydro-2H-quinolin-1-yl]-N-methyl-6,7-dihydro-4H-pyrazolo[4,3-c] pyridine-5-carboxamide] | < 1 nM | ≤ 0.1 nM | > 10000 nM
5 | COc1cc(OC2C(C)(C)C(NC(=O)c3ccc(N4CC(C)C(CN5CCC(n6nc(N7CCCc8cc(-c9cnn(C)c9)c(C(F)F)cc87)c7c6CCN(C(C)=O)C7)CC5)C(C)C4)cc3)C2(C)C)ccc1C#N (stereo not drawn) [Compound 327, 4-[4-[[4-[5-acetyl-3-[7-(difluoromethyl)-6-(1-methylpyrazol-4-yl)-3,4-dihydro-2H-quinolin-1-yl]-6,7-dihydro-4H-pyrazolo[4,3-c]pyridin-1-yl]-1-piperidyl]methyl]-3,5-dimethyl-1-piperidyl]-N-[3-(4-cyano-3-methoxy-phenoxy)-2,2,4,4-tetramethyl-cyclobutyl]benzamide] | < 1 nM | 0.1 to 1 nM | > 1000 nM
6 | CNC(=O)N1CCc2c(c(N3CCCc4cc(-c5cnn(C)c5)c(C(F)F)cc43)nn2C2CCN(C(=O)COCCOCCN3CCN(c4ncc(C(=O)NC5C(C)(C)C(Oc6ccc(C#N)c(Cl)c6)C5(C)C)cn4)CC3)CC2)C1 (stereo not drawn) [Compound 103, 1-[1-[2-[2-[2-[4-[5-[[3-(3-chloro-4-cyano-phenoxy)-2,2,4,4-tetramethyl-cyclobutyl]carbamoyl]pyrimidin-2-yl]piperazin-1-yl]ethoxy]ethoxy]acetyl]-4-piperidyl]-3-[7-(difluoromethyl)-6-(1-methylpyrazol-4-yl)-3,4-dihydro-2H-quinolin-1-yl]-N-methyl-6,7-dihydro-4H-pyrazolo[4,3-c]pyridine-5-carboxamide] | < 1 nM | 0.1 to 1 nM | > 10000 nM
7 | COc1cc(OC2C(C)(C)C(NC(=O)c3ccc(N4CCC(CN5CCC(n6nc(N7CCCc8cc(-c9cnn(C)c9)c(C(F)F)cc87)c7c6CCN(C(C)=O)C7)CC5)C(C)C4)cc3)C2(C)C)ccc1C#N (stereo not drawn) [Compound 263, 4-[4-[[4-[5-acetyl-3-[7-(difluoromethyl)-6-(1-methylpyrazol-4-yl)-3,4-dihydro-2H-quinolin-1-yl]-6,7-dihydro-4H-pyrazolo[4,3-c]pyridin-1-yl]-1-piperidyl]methyl]-3-methyl-1-piperidyl]-N-[3-(4-cyano-3-methoxy-phenoxy)-2,2,4,4-tetramethyl-cyclobutyl]benzamide] | < 1 nM | ≤ 0.1 nM | > 1000 nM

Further lines, with some results ahead:

Row | EC50 [2] | IC50 [3] | SMILES | IC50 [1]
8 | < 1 nM | 1 to 100 nM | CC(=O)N1CCc2c(c(-c3cccc4cc(-c5cnc(CCN(C)c6ncc(C(=O)NC7C(C)(C)C(Oc8ccc(C#N)c(Cl)c8)C7(C)C)cn6)nc5)ncc34)nn2C2CCOCC2)C1 (stereo not drawn) [Compound 74, 2-[2-[5-[8-(5-acetyl-1-tetrahydropyran-4-yl-6,7-dihydro-4H-pyrazolo[4,3-c]pyridin-3-yl)-3-isoquinolyl]pyrimidin-2-yl]ethyl-methyl-amino]-N-[3-(3-chloro-4-cyano-phenoxy)-2,2,4,4-tetramethyl-cyclobutyl]pyrimidine-5-carboxamide] | > 10000 nM
9 | < 1 nM | ≤ 0.1 nM | CC(=O)N1CCc2c(c(N3CCCc4cc(-c5cnn(C)c5)c(C(F)F)cc43)nn2C2CCN(CC3CCN(c4ncc(C(=O)NC5C(C)(C)C(Oc6ccc(C#N)c(Cl)c6)C5(C)C)cn4)CC3)CC2)C1 (stereo not drawn) [Compound 84, 2-[4-[[4-[5-acetyl-3-[7-(difluoromethyl)-6-(1-methylpyrazol-4-yl)-3,4-dihydro-2H-quinolin-1-yl]-6,7-dihydro-4H-pyrazolo[4,3-c]pyridin-1-yl]-1-piperidyl]methyl]-1-piperidyl]-N-[3-(3-chloro-4-cyano-phenoxy)-2,2,4,4-tetramethyl-cyclobutyl]pyrimidine-5-carboxamide] | > 10000 nM
10 | < 1 nM | 0.1 to 1 nM | CC(=O)N1CCc2c(c(-c3cccc4cc(-c5ccc(OCc6ncc(C(=O)NC7C(C)(C)C(Oc8ccc(C#N)c(Cl)c8)C7(C)C)cn6)nc5)ncc34)nn2C2CCOCC2)C1 (stereo not drawn) [Compound 72, 2-[[5-[8-(5-acetyl-1-tetrahydropyran-4-yl-6,7-dihydro-4H-pyrazolo[4,3-c]pyridin-3-yl)-3-isoquinolyl]-2-pyridyl]oxymethyl]-N-[3-(3-chloro-4-cyano-phenoxy)-2,2,4,4-tetramethyl-cyclobutyl]pyrimidine-5-carboxamide] | > 10000 nM
